≈ marks a conversion by molar mass, not a printed value.
What was measured:
S. aureus (UAMS1) = test: Minimum inhibitory concentration, S. aureus UAMS1; format: cell-based; conditions: Staphylococcus aureus; strain UAMS1
[1] = system: S. aureus (UAMS1) biofilm; test: Biofilm CFU on stainless-steel rings, antibiotic with or without iAMF, UAMS1; format: cell-based; conditions: for CFU at 24 h, iAMF and antibiotic versus antibiotic alone: antibiotic 2 μg/mL, iAMF Tmax=65 °C, 15 min per dose at 0 and 12 h
Protocol: Biofilm preparation, treatment and quantification.
Doses were delivered at 0 and 12 hours and ring biofilm burden was quantified at various time points as above. For S. aureus experiments, biofilm of UAMS1 were prepared on stainless steel rings according to the culturing protocol and incubated with 2 μg/mL of ceftriaxone or 2 μg/mL of linezolid, in 10 mL TSB media. […] Doses were delivered at 0 and 12 hours and biofilm burden was quantified at 24 hours.

[2] = system: P. aeruginosa (MB699) biofilm; test: Scanning electron microscopy of MB699 biofilm; format: cell-based; conditions: 64 μg/mL; for bacterial morphology by SEM, antibiotic alone: 12 h, no iAMF; for bacterial morphology by SEM, iAMF and antibiotic: 12 h post iAMF (Tmax=65 °C, Nexp=12)
Protocol: […]. The rings were carefully transferred to 4 mL PBS, rinsed in 4 mL of 0.1 M sodium cacodylate buffer three times and fixed for 24 h in 4 mL of 2% glutaraldehyde, 2% paraformaldehyde in 0.1 M sodium cacodylate buffer. After rinsing in 4 mL of cacodylate buffer three times, the samples were re-fixed in 4 mL of 2% osmium in 0.1 M sodium cacodylate buffer for 2 h. Then the rings were further rinsed with 4 mL of deionized water five times and dehydrated at room temperature in five steps by placing the rings in 4 mL of 50, 70 (twice), 85, 95 (twice) and 100% ethanol respectively for 5 min per solution. The rings were then transferred to 4 mL of 25, 50, 75 and 100% (twice) hexamethyldisilazane (HMDS) in ethanol consecutively for 15 min each. Finally, the samples were left to dry for 24 h in a fume hood. The specimens were mounted on aluminum stubs, gold/palladium sputter coated, and examined using a Zeiss Sigma VP scanning electron microscope. The images were acquired at 10 kV with magnification of approximately 35000×.

GFP-PAO1 biofilms = test: Laser scanning confocal microscopy of GFP-PAO1 biofilm; conditions: 0.5 μg/mL
Description: After staining, rings were mounted on a 50 mm glass bottom plate and images were captured with a Zeiss LSM880 Airyscan laser confocal microscope. The GFP-PA01 bacteria and ConA-stained EPS were imaged using a 40× objective lens. Multiple regions of the ring surface were randomly selected, and Z-stacks were acquired with slice step size of 0.5 μm. Before image processing, the z-stacks were deconvolved using Autoquant×3 (Media Cybernetics, MD, USA) to improve the image resolution in X, Y and Z directions. The deconvolved images were analyzed with Imaris x64 9.1.2 (Bitplane AG, Zurich, Switzerland).

[3] = system: MDR P. aeruginosa (MB699) biofilm; test: Biofilm CFU on rings, antibiotic with or without iAMF, MDR strain MB699; conditions: for CFU reduction with iAMF at other antibiotic concentrations: meropenem sub-MIC 32 μg/mL, ciprofloxacin increased concentration (128 μg/ml), 48 h
[4] = system: MDR P. aeruginosa (MB699); test: microbe, parasite or virus in culture; conditions: Pseudomonas aeruginosa, read-out: minimum inhibitory concentration (MIC)

Structure (SMILES): CO/N=C(\C(=O)N[C@@H]1C(=O)N2C(C(=O)O)=C(CSc3nc(=O)c(=O)[nH]n3C)CS[C@H]12)c1csc(N)n1 [ceftriaxone]
- MIC (S. aureus (UAMS1)): 2 µg/mL (≈ 3.61 µM)
- CFU after 24 h ([1]; 2 μg/mL ceftriaxone in combination with iAMF (doses at 0 and 12 h)): approaching the limit of detection
- CFU at 24 h, iAMF and antibiotic versus antibiotic alone [1]: significantly lower CFU
- CFU reduction after 24 h ([1]; ceftriaxone alone, 2 μg/mL): ~2 log
- initial decrease of biofilm CFU ([1]; iAMF (Tmax=65 °C, 15 min dose) and 2 μg/mL ceftriaxone, after first dose): over 3 logs

Structure (SMILES): O=C(O)c1cn(C2CC2)c2cc(N3CCNCC3)c(F)cc2c1=O [ciprofloxacin]
- bacterial morphology by SEM, antibiotic alone [2]: no obvious morphological changes
- bacterial morphology by SEM, iAMF and antibiotic [2]: slight lengthening of bacteria and increased wrinkling of the membrane
- bacterial morphology by confocal microscopy, ciprofloxacin only (GFP-PAO1 biofilms; 12 h post-treatment): slight elongation
- EPS staining and morphology by confocal microscopy, iAMF and ciprofloxacin (GFP-PAO1 biofilms; iAMF Tmax=65 °C, Nexp=12, 12 h): less dense EPS staining
- bacterial burden (CFU) at 48 h with iAMF and antibiotic [3]: did not result in a further reduction of CFU
- CFU reduction with iAMF at other antibiotic concentrations [3]: did not lead to enhanced CFU decreases

Structure (SMILES): CC(=O)NC[C@H]1CN(c2ccc(N3CCOCC3)c(F)c2)C(=O)O1 [linezolid]
- MIC (S. aureus (UAMS1)): 2 µg/mL (≈ 5.93 µM)
- CFU at 24 h, iAMF and antibiotic versus antibiotic alone [1]: significantly lower CFU
- magnitude of biofilm reduction, 7-day versus 2-day biofilm ([1]; iAMF (Tmax=65 °C, 15 min per dose) and 2 μg mL-1 linezolid): no significant difference

Structure (SMILES): C[C@@H](O)[C@H]1C(=O)N2C(C(=O)O)=C(S[C@@H]3CN[C@H](C(=O)N(C)C)C3)[C@H](C)[C@H]12 [meropenem]
- bacterial morphology by SEM, antibiotic alone [2]: no obvious morphological changes
- bacterial morphology by SEM, iAMF and antibiotic [2]: fragmented and deformed bacterial cells
- MIC [4]: 64 µg/mL (≈ 167 µM)
- CFU reduction with iAMF at other antibiotic concentrations [3]: also seen
- interaction of iAMF and antibiotic in MDR strain ([3]; strain with oprD porin and DNA gyrase mutations): synergistic effect
